The nature of series [1]: Drug level in kidney of Leishmania braziliensis MHOM/BR/2000/CP13396 infected rhesus monkey at 20 mg/kg, im qd for 21 days administered 9 weeks postinfection measured 95 days after compound dosing. More on the design: dose 20 mg/kg, route intramuscular. The following applies: in vivo, 2280 h. Type of series: ADME, organism-based, Macaca mulatta.
Series [2] is described as follows: Drug level in kidney of Leishmania braziliensis MHOM/BR/2000/CP13396 infected rhesus monkey at 5 mg/kg, im qd for 21 days administered 9 weeks postinfection measured 95 days after compound dosing. Conditions: in vivo, 2280 h. More on the design: dose 5 mg/kg, route intramuscular. It counts as ADME, organism-based, Macaca mulatta.
Series [3] can be described thus: Drug level in liver of Leishmania braziliensis MHOM/BR/2000/CP13396 infected rhesus monkey at 20 mg/kg, im qd for 21 days administered 9 weeks postinfection measured 95 days after compound dosing. Type of series: ADME, organism-based, Macaca mulatta. Details: dose 20 mg/kg, route intramuscular. Conditions: in vivo, 2280 h.
Series [4] in a line: Drug level in spleen of Leishmania braziliensis MHOM/BR/2000/CP13396 infected rhesus monkey at 20 mg/kg, im qd for 21 days administered 9 weeks postinfection measured 95 days after compound dosing. Type of series: ADME, organism-based, Macaca mulatta. Details: dose 20 mg/kg, route intramuscular. The following applies: in vivo, 2280 h.
A short description of series [5]: Drug level in spleen of Leishmania braziliensis MHOM/BR/2000/CP13396 infected rhesus monkey at 5 mg/kg, im qd for 21 days administered 9 weeks postinfection measured 55 days after compound dosing. It counts as ADME, organism-based, Macaca mulatta. Details: dose 5 mg/kg, route intramuscular. Conditions: in vivo, 1320 h.
Series [6] can be described thus: Drug level in kidney of Leishmania braziliensis MHOM/BR/2000/CP13396 infected rhesus monkey at 5 mg/kg, im qd for 21 days administered 9 weeks postinfection measured 55 days after compound dosing. It counts as ADME, organism-based, Macaca mulatta. The following applies: in vivo, 1320 h. Details: dose 5 mg/kg, route intramuscular.
The nature of series [7]: Drug level in kidney of Leishmania braziliensis MHOM/BR/2000/CP13396 infected rhesus monkey at 20 mg/kg, im qd for 21 days administered 9 weeks postinfection measured 55 days after compound dosing. Type of series: ADME, organism-based, Macaca mulatta. Details: dose 20 mg/kg, route intramuscular. Conditions: in vivo, 1320 h.
Series [8] has as its system Rhesus monkey. The experiment in a line: Toxicity in Leishmania braziliensis MHOM/BR/2000/CP13396 infected rhesus monkey assessed as incidence of toxicity symptoms at 20 mg/kg, im qd for 21 days administered 9 weeks postinfection. It counts as organism-based, Macaca mulatta. Details: dose 20 mg/kg, route intramuscular. Conditions: in vivo.
Series [9] in a line: Drug level in liver of Leishmania braziliensis MHOM/BR/2000/CP13396 infected rhesus monkey at 20 mg/kg, im qd for 21 days administered 9 weeks postinfection measured 55 days after compound dosing. It counts as ADME, organism-based, Macaca mulatta. Details: dose 20 mg/kg, route intramuscular. The following applies: in vivo, 1320 h.
Series [10] can be described thus: Drug level in spleen of Leishmania braziliensis MHOM/BR/2000/CP13396 infected rhesus monkey at 5 mg/kg, im qd for 21 days administered 9 weeks postinfection measured 95 days after compound dosing. It counts as ADME, organism-based, Macaca mulatta. Conditions: in vivo, 2280 h. More on the design: dose 5 mg/kg, route intramuscular.
Series [11] is described as follows: Drug level in liver of Leishmania braziliensis MHOM/BR/2000/CP13396 infected rhesus monkey at 5 mg/kg, im qd for 21 days administered 9 weeks postinfection measured 55 days after compound dosing. Details: dose 5 mg/kg, route intramuscular. Type of series: ADME, organism-based, Macaca mulatta. The following applies: in vivo, 1320 h.
Series [12] can be described thus: Drug level in liver of Leishmania braziliensis MHOM/BR/2000/CP13396 infected rhesus monkey at 5 mg/kg, im qd for 21 days administered 9 weeks postinfection measured 95 days after compound dosing. Type of series: ADME, organism-based, Macaca mulatta. The following applies: in vivo, 2280 h. Details: dose 5 mg/kg, route intramuscular.
For series [13], the system named is Rhesus monkey. In words: Hepatotoxicity in Leishmania braziliensis MHOM/BR/2000/CP13396 infected rhesus monkey assessed as incidence of hepatocellular acidophilic necrosis at 5 mg/kg, im qd for 21 days administered 9 weeks postinfection. It counts as toxicity, organism-based, Macaca mulatta. More on the design: dose 5 mg/kg, route intramuscular. Conditions: in vivo.

Series [14] concerns Rhesus monkey. In words: Toxicity in Leishmania braziliensis MHOM/BR/2000/CP13396 infected rhesus monkey assessed as incidence of toxicity symptoms at 5 mg/kg, im qd for 21 days administered 9 weeks postinfection. It counts as organism-based, Macaca mulatta. Details: dose 5 mg/kg, route intramuscular. Conditions: in vivo.
Series [15] can be described thus: Drug level in spleen of Leishmania braziliensis MHOM/BR/2000/CP13396 infected rhesus monkey at 20 mg/kg, im qd for 21 days administered 9 weeks postinfection measured 55 days after compound dosing. It counts as ADME, organism-based, Macaca mulatta. More on the design: dose 20 mg/kg, route intramuscular. The following applies: in vivo, 1320 h.
Series [16] relates to Rhesus monkey. The experiment in a line: Hepatotoxicity in Leishmania braziliensis MHOM/BR/2000/CP13396 infected rhesus monkey assessed as incidence of hepatocellular acidophilic necrosis at 20 mg/kg, im qd for 21 days administered 9 weeks postinfection. Type of series: toxicity, organism-based, Macaca mulatta. More on the design: dose 20 mg/kg, route intramuscular. Conditions: in vivo.

In series [17] the test system is Leishmania braziliensis. The experiment in a line: […] activity against Leishmania braziliensis MHOM/BR/2000/CP13396 infected Rhesus monkey assessed as relapse in parasite-induced skin lesions at 5 mg/kg, intramuscular daily for 21 days administered 9 weeks post infection. Type of series: functional, organism-based. More on the design: dose 5 mg/kg.
The subject of series [18] is Leishmania braziliensis. In words: […] activity against Leishmania braziliensis MHOM/BR/2000/CP13396 infected Rhesus monkey assessed as total decrease in parasite-induced skin lesions at 20 mg/kg, intramuscular daily for 21 days administered 9 weeks post infection. More on the design: dose 20 mg/kg. Type of series: functional, organism-based.

Activity calls are given as the source filed them. No cut-off for these calls is given here.

In the case of “MEGLUMINE ANTIMONATE [listing 1 of 2 here]”, the Drug uptake in [1] came to 313 ng/g; in series [2], 152 ng/g; in series [3], 1800 ng/g; in [4], 2220 ng/g; in [5], 1433 ng/g; in series [6], 500 ng/g. Further, the Drug uptake in [7] stood at 698.3 ng/g; in series [9], 4800 ng/g; in series [10], 476.7 ng/g; in series [11], 2913 ng/g; in [12], 669.3 ng/g; in [15], 1593 ng/g. In addition, the Activity result in series [8] is “Non-toxic”; in series [13], “Toxic”; in [14], “Non-toxic”; in [16], “Toxic”.
Regarding “MEGLUMINE ANTIMONATE [listing 2 of 2 here]”, the Activity in series [17] came to 50%. For the same sequence, the inhibition result in series [18] was “Active”.

(Values after ChEMBL document CHEMBL1212741, “Comparative efficacies of two antimony regimens to treat Leishmania braziliensis-induced cutaneous Leishmaniasis in rhesus macaques (Macaca mulatta)” (Antimicrob Agents Chemother, 2010).)
